One test concerns E. histolytica. To be noted: 20 mg/kg orally daily for 7 days, murine model, cited from earlier work. From the text: Intestinal parasite infections, including amoebiasis, remain the main causes of morbidity and mortality in developing countries. In Mexico, amoebiasis is included in the list of the 20 most frequent communicable diseases, as the numbers of new cases of intestinal and hepatic amoebiasis in 2016 were approximately 220000 and 560, respectively, according to the Secretary of Health (http://www.epidemiologia.salud.gob.mx/anuario/2016/morbilidad/nacional/distribucion_casos_nuevos_enfermedad_fuente_notificacion.pdf). Treatment with metronidazole and other nitro-imidazole derivatives remains the ... || Finally, our results regarding the high efficiency of the peptides at resolving murine intestinal amoebiasis opens the possibility of using them as potential new compounds for the treatment of the disease, either alone or in combination with metronidazole. This would reduce the concentration of the drug needed to resolve an amoebic infection and, in turn, reduce the adverse effects of the drug and the potential development of resistance in the parasite. The mechanism by which the peptides controlled intestinal infection by amoebas in mice remains unknown. The higher efficiency of Lfampin, whic ...

Test [1] relates to E. histolytica HM1:IMSS trophozoites. It counts as cell-based, Entamoeba histolytica. As to conditions: MTT, 24 h. As for the experimental part: Axenic E. histolytica HM1:IMSS trophozoites were maintained in TYI-S-33 medium supplemented with 15% adult bovine serum (Microlab) and 3% Diamond vitamin stock solution 40× (Sigma-Aldrich) under anaerobic conditions at 37°C for 72 h. Virulence of trophozoites was maintained through successive passages into hamster liver, followed by recovery of parasites from the induced amoebic liver abscesses. Trophozoites grown for 72 h (log-phase) were harvested by ice-chilling for 5 min and centrifugation at 150 g for 5 min at 4°C.
Trophozoites were harvested from cultures after 72 h, as mentioned above, and were seeded in 96-well culture plates at 2 × 10^4 trophozoites in 200 μl of fresh TYI-S-33 medium. […] The plates were incubated for 24 h at 37°C and viability was determined using 3-[4,5-dimethylthiazol-2-yl]-2,5-diphenyltetrazolium bromide (MTT). […] Finally, the absorbance at 595 nm was measured within 15 min, using a plate reader Multiskan FC (Thermo Scientific). A MTT calibration curve was previously calculated using amoeba densities of between 1 × 10^3 and 1 × 10^5 parasites/well. […] The total number of parasites after treatments was also determined following the same methodology, but adding to the wells only 250 µM of the peptides separately and incubating for 24 h at 37°C. Amoebas were harvested by ice chilling for 5 min and counted on a hemocytometer using a Nikon TMS inverted microscope.

The values that follow come from PMC6328891, “Synthetic bovine lactoferrin peptide Lfampin kills Entamoeba histolytica trophozoites by necrosis and resolves amoebic intracecal infection in mice” (Bioscience Reports, 2019).

Like-named read-outs stand apart in the source and are kept apart here. Ends that are not written are not given here.

For lactoferrin, the intestinal infection resolved result with E. histolytica is “up to 63%”; with E. histolytica (listed as native Lf) it was 63%.
For DLIWKLLSKAQEKFGKNKSR [Lfampin], the IC50 (as a rule, the concentration that gives 50% inhibition) in test [1] (37°C, estimated (Supplementary Figure S1)) was 220 µM. This substance also yielded a trophozoites killed in test [1] (doses higher than 100 μM) of 80%.
